Experimental data reported in ChEMBL document CHEMBL1201862, “PubChem BioAssay data set” (2004).
Active and inactive are the calls of the source.

Columns and labels:
[1] = target: T1, High affinity choline transporter 1 (Homo sapiens, UniProt Q9GZV3); assay: CHT inhibitors, dose response, cell-based, 5-point CRC, membrane potential dye (AID 504840); type: functional
T1 sequence (Q9GZV3 whole entry): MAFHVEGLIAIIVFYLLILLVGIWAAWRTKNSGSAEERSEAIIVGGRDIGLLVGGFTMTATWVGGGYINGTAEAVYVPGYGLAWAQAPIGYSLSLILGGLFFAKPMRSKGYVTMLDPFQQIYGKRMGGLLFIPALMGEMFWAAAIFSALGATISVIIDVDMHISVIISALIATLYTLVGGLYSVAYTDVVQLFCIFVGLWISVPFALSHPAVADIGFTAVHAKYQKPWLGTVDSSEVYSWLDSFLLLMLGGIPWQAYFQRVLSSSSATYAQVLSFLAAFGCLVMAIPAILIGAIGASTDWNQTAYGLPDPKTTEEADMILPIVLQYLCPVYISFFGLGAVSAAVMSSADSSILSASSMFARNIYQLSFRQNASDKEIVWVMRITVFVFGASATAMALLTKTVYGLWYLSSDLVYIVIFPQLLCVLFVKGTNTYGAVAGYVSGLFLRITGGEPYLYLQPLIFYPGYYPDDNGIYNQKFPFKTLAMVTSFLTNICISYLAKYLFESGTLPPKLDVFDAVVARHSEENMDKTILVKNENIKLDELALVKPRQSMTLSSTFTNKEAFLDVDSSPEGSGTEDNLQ

Cytochrome P450 2D6 = Cytochrome P450 2D6 (Homo sapiens, UniProt P10635);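 note: CYP2D6 member of a cytochrome P450 panel assay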
Protein skinhead-1 = target: T2, Protein skinhead-1 (Caenorhabditis elegans, UniProt P34707); type: functional
T2 sequence (P34707 whole entry): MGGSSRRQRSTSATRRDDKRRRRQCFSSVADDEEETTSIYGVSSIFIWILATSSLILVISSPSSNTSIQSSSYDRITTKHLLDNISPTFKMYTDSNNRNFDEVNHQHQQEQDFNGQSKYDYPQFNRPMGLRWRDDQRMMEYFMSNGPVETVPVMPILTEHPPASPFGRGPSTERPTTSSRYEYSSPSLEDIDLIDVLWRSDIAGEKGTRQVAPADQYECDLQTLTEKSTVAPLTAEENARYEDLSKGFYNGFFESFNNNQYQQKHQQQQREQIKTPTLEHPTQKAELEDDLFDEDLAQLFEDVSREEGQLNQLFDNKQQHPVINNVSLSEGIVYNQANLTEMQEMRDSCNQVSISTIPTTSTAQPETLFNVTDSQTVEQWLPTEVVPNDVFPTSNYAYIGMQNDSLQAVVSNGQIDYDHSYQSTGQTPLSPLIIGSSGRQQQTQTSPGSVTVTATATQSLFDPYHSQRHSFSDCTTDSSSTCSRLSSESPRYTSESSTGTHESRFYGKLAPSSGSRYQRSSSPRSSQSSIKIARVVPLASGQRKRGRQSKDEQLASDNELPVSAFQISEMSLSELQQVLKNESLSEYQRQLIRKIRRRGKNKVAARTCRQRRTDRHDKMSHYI

[2] = THP-1 cell cytotoxicity, dose response, cytotoxicity control for non-replicating M. tuberculosis project (AID 489025); type: functional
[3] = tested on: Streptococcus sp. 'group A'; assay: growth inhibition of control SK(-) GAS strain, dose response, counter-screen for streptokinase expression inhibitor project, luminescence, kanamycin, BacTiterGlo, confirmation (AID 1900); type: functional, organism-based
cells = type: functional
Streptococcus = assay: Group A Streptococcus viability loss, dose response, counter-screen for streptokinase expression inhibitor project, luminescence, BacTiterGlo (AID 1915); type: functional, organism-based;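 note: potency for reduction of bacterial viability or growth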
HEK293 = assay: inhibitors of LMP1-driven NF-kB reporter, dose response, cell-based, HEK293, luciferase, cherry-pick (AID 588343); type: functional, Homo sapiens; conditions: Homo sapiens, HEK293
[4] = cytotoxicity toward DRD oncogenic fibroblasts, dose response, cell-based, non-viral oncogenic, luminescence (AID 1934); type: functional; conditions: Homo sapiens
BJ [5] = assay: cells; type: functional, cell-based; conditions: Homo sapiens
BJ [6] = assay: cytotoxicity toward BJ-TERT fibroblasts, dose response, cell-based, RAS-independent, luminescence (AID 1933); type: functional; conditions: Homo sapiens
BJ [7] = assay: cytotoxicity toward BJ-TERT-LT-ST fibroblasts, dose response, cell-based, RAS-independent, luminescence (AID 1935); type: functional; conditions: Homo sapiens;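 note: BJ fibroblasts immortalized with TERT plus LT and ST oncogenes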
[8] = target: T3, Heat shock factor protein 1 (Mus musculus, UniProt P38532); assay: HSF1 potentiators in luciferase reporter cells, confirmation, cell-based, NIH3T3, luminescence, dose retest (AID 435004); type: functional;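 note: stress induced by proteasome inhibitor MG132 added 30 min after compound; luciferase reporter driven by HSF1 response element in NIH3T3 cells; actives raise luminescence as potentiators of the MG132 stress response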
T3 sequence (P38532 whole entry): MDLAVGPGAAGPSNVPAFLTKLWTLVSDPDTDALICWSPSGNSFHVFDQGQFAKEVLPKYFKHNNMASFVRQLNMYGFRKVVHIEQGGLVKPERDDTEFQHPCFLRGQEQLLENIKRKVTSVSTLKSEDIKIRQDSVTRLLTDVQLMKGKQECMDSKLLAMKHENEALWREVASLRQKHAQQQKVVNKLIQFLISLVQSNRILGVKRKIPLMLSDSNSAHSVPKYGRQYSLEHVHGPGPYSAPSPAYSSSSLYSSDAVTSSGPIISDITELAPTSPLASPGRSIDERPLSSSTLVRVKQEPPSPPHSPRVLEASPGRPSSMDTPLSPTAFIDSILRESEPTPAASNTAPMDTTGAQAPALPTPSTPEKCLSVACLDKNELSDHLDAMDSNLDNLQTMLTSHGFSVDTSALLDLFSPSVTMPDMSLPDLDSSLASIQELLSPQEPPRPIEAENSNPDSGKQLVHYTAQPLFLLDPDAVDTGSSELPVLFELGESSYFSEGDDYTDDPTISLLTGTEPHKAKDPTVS

[9] = target: Luciferin 4-monooxygenase (Photinus pyralis, UniProt P08659); assay: firefly luciferase enzyme inhibitors, dose response, biochemical, luminescence (AID 1891)
[10] = Luminescence Cell-Based Dose Confirmation HTS to Identify Inhibitors of Platelet Dense Granule Release. [Related pubchem assays: 1663 (Primary HTS), 1678 (Summary of Project)]; type: functional
[11] = P. falciparum Dd2 growth inhibitors, dose response, SYBR Green, cherry-picked samples (AID 1159567); type: functional, cell-based

Chain of Cytochrome P450 2D6 (P10635 whole entry): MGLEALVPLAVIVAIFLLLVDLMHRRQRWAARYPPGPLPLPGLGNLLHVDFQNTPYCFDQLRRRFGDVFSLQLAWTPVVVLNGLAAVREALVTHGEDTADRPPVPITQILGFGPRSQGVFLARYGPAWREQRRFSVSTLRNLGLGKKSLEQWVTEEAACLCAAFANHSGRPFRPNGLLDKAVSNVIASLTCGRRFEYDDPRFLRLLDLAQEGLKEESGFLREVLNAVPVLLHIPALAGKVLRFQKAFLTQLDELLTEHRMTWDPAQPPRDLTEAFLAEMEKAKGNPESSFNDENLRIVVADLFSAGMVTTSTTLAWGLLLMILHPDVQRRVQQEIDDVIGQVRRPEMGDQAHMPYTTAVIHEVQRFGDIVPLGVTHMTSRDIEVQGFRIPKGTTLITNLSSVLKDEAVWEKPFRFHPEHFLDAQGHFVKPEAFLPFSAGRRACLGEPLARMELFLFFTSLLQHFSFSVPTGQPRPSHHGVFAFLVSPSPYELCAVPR
Chain of Luciferin 4-monooxygenase (P08659 whole entry): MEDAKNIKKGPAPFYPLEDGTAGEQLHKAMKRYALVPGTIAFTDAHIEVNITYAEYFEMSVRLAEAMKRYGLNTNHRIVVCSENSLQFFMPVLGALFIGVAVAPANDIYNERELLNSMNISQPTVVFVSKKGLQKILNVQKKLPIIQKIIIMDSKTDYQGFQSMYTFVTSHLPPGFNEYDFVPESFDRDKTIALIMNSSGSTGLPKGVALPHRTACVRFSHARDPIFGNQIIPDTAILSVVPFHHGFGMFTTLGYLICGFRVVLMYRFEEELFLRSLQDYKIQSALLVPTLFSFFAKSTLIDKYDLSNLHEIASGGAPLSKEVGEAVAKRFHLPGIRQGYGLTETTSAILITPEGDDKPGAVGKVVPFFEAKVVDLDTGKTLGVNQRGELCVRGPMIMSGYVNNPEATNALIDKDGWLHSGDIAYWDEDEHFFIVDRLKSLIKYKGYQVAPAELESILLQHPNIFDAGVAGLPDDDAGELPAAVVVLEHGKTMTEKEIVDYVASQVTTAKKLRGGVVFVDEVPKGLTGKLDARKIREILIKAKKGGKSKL

CC(C)NC[C@H](O)c1ccc(O)c(O)c1
IC50 [1]: 4.17e-05 µM (inconclusive)

CN(CCC#N)c1ncnc2scc(-c3ccccc3)c12
IC50 [1]: 12.3 µM (active)

C=CCNc1nc(-c2ccc(Cl)cc2)cs1
AC50 (Cytochrome P450 2D6): 25.1 µM (inconclusive) | IC50 (Protein skinhead-1): > 100 µM (inactive)

Cc1cccc(Cn2c(Sc3nc(C)cs3)nc3c2c(=O)[nH]c(=O)n3C)c1
IC50 (Protein skinhead-1): > 100 µM (inactive)

CCN1CCn2c3c(c4cc(Cl)ccc42)CCCC31 (configuration not stated)
IC50 [1]: 3.31 µM (active)

O=C(Nc1nnc(-c2ccco2)o1)c1ccc(Cl)s1
CC50 [2]: > 40 µM (active) | EC50 [3]: 3.01 µM (active) | IC50 (cells): 1.57 µM (active) | EC50 (Streptococcus): 10.1 µM (active)

CC(C)(C)CC(C)(C)N=C(S)Nc1ccc2nc(-c3ccccn3)c(-c3ccccn3)nc2c1
IC50 [1]: 26.3 µM (active)

CCN1CCn2c3c(c4cccc(C)c42)CCCC31 (configuration not stated)
IC50 [1]: 14.5 µM (active)

Cc1cc2cc(CN(Cc3ccco3)S(=O)(=O)c3c(C)ccc4nsnc34)c(O)nc2cc1C
AC50 (HEK293): 0.968 µM (active)

CC(C)c1ccc(NC(=O)NCc2cccnc2)cc1
IC50 (Protein skinhead-1): > 100 µM (inactive)

CCN1C/C(=C/c2ccc(N3CCOCC3)cc2)C(=O)/C(=C/c2ccc(N3CCOCC3)cc2)C1
EC50 [4]: 5.96 µM (active) | EC50 (BJ [5]): 11 µM (inconclusive) | EC50 (BJ [6]): 7.89 µM (active) | EC50 (BJ [7]): 5.64 µM (active)

CCC(NC(=O)CCc1nnc(-c2cc(C)on2)o1)C12CC3CC(CC(C3)C1)C2 (configuration not stated)
IC50 [1]: 14.5 µM (active)

Cc1cc(NC(=O)CSc2nc(-c3ccco3)cc(C(F)(F)F)n2)n(-c2ccccc2)n1
EC50 [4]: 14.9 µM (active) | EC50 (BJ [5]): 64.5 µM (inconclusive) | EC50 (BJ [6]): 17.6 µM (inconclusive) | EC50 (BJ [7]): > 75 µM (not active)

O=C1C2CCCN2c2ccc(S(=O)(=O)N3CCOCC3)cc2N1Cc1ccccc1F (configuration not stated)
AC50 (HEK293): > 350 µM (inactive)

COc1cccc(C(=O)O/N=C(\N)c2ccccn2)c1OC
AC50 (HEK293): 2.67 µM (active)

O=C(NNc1cc(Cl)cc(Cl)c1)c1cccs1
IC50 [1]: 16.2 µM (active)

COc1ccc(/C=N/Nc2cc(OC)ncn2)cc1
EC50 [8]: > 260 µM (inactive) | EC50 [9]: 6.11 µM (active) | EC50 [10]: 5.24 µM (active) | AC50 (HEK293): 11.2 µM (active)

COC(=O)C1=C(C)N=C(C)/C(=C(/O)OC)C1c1ccc(OC(=O)c2ccco2)cc1 (configuration not stated)
IC50 (Protein skinhead-1): > 100 µM (inactive)

COc1ccc2c3c([nH]c2c1)[C@@H](CO)N(Cc1cccc(Cl)c1)CC31CN(C(C)=O)C1
AC50 [11]: 10.6 µM (active)

COc1ccc2c3c([nH]c2c1)[C@@H](CO)N(C(=O)Cc1ccccc1)CC31CCN(C(=O)Cc2ccccc2)CC1
AC50 [11]: 4.77 µM (active)

CCCC(=O)N1CCC2(CC1)CN[C@@H](CO)c1[nH]c3cc(OC)ccc3c12
AC50 [11]: 6.24 µM (active)

CCCNC(=O)N1CCC2(CC1)CN(Cc1cccc(F)c1)[C@@H](CO)c1[nH]c3cc(OC)ccc3c12
AC50 [11]: 10.2 µM (active)

C[C@H]1CN([C@@H](C)CO)C(=O)c2c(c3ccccc3n2C)-c2ccccc2CO[C@@H]1CN(C)S(=O)(=O)c1ccccc1F
AC50 [11]: 3.81 µM (active)

O=C(Nc1ccccc1)OCCCc1ccccc1 [3-PHENYLPROPYL PHENYLCARBAMATE]
IC50 (Protein skinhead-1): 68.6 µM (inactive)
